Assay results reported in patent US20030219400A1 (priority 2002, published 2003).

What was measured:
PLDS patients = type: in vivo, human
Description: An orally administered checklist monitored symptoms; sequential VCS testing was performed. […] No antibiotics or other therapeutic interventions were administered during the study. Diagnostic parameters used by referring physicians included a history of erythema chronicum migrans (ECM) rash, ELISA assay, Borrelia burgdorferi Western blot, LUAT assay, PCR, CSF antibodies to B. burgdorferi and culture. Patients with a clinical diagnosis of PLDS but without a positive serologic test were included at the discretion of the attending physician.

[1] = system: macrophage release of pro-inflammatory cytokines, including TNF and IL1B; conditions: intraventricular instillation; cited from earlier work
SBS patients = conditions: human, in vivo

Compound: CCc1ccc(CCOc2ccc(CC3SC(=O)NC3=O)cc2)nc1 (stereo not shown) [pioglitazone]
- adverse effects from pioglitazone, including hypoglycemia or abnormal liver function tests (PLDS patients; 45 mg daily for 10 days): No patients had adverse effects
- patients with significant intensification of symptoms, not severe enough to stop treatment (PLDS patients; of 241 patients receiving pioglitazone, CSM added on day 6): 5 patients

Compound: Ser-Tyr-Ser-Met-Glu-His-Phe-Arg-Trp-Gly-Lys-Pro-Val [αMSH]
- macrophage release of pro-inflammatory cytokines, including TNF and IL1B [1]: down-regulation of macrophage release of pro-inflammatory cytokines

Compound: cholestyramine [CSM]
- other complications of therapy (SBS patients): No other significant complications of therapy were noted
